The source of these data is US6399607B1, “Aminomethylene amide analogs of pyrazinamide with intracellular antimycobacterial activity against pyrazinamide-resistant mycobacteria combined with a rifamycin” (priority 1999, dated 2002).

One series has as its system M. avium complex. Put plainly: MIC in modified 7H10 broth against M. avium complex (Tables 3, 4). In kind it is cell-based, Mycobacterium avium. Set-up: unit not given here.
A further series deals with M. kansasii. Put plainly: MIC in modified 7H10 broth against M. kansasii (Tables 3, 4). In kind it is cell-based, Mycobacterium kansasii. Details: unit not given beside the values. As to conditions: clinical isolate S.
Series [1] deals with M. tuberculosis. Put plainly: MIC in modified 7H10 broth against M. tuberculosis (Table 3). It is filed as cell-based, Mycobacterium tuberculosis. Set-up: MIC, M. tuberculosis ATCC 35801 / MIC, M. tuberculosis ATCC 27294: unit not given here. The note with it: for MIC, M. tuberculosis ATCC 27294: ATCC 27294 (H37RV, PZA susceptible), pH 5.8; for MIC, M. tuberculosis ATCC 35801: ATCC 35801, pH 5.8.

Series [2] relates to M. tuberculosis. The series is described as follows: Murine model of tuberculosis, combination with KRM-1648 (RLZ) (FIG. 2). It is filed as in vivo. As to conditions: mice, in combination with KRM-1648 (Rifalazil, RLZ).
In series [3] the test system is M. tuberculosis. Put plainly: microbe, parasite or virus in culture. The note with it: for MIC, Pansusceptible strain, pH 6.0 / MIC, Pansusceptible strain, pH 6.8: 7H12 BACTEC broth, three pansusceptible strains; for MIC: Mycobacterium tuberculosis, same at pH 6.0 and 6.8. In kind it is cell-based, Mycobacterium tuberculosis. Details: MIC, pansusceptible strain, pH 5.5 / MIC, Pansusceptible strain, pH 6.0 / MIC, Pansusceptible strain, pH 6.8: unit not given here.

The test system of series [4] is Mtb organisms which have been phagocytized. The note with it: reduced efficacy after 4 to 7 days; cited from earlier work.
The next series concerns Mycobacterium avium. The note with it: Heifets et al, Am. Rev. Resp. Dis. 134: 1287-1288 (1986); cited from earlier work.
For series [5] the following is noted: cited from earlier work.
Setting [6] is: Table 3, ATCC 49601 (serotype 1), modified 7H10 broth, pH 5.8.
Setting [7] is: Table 3, strain 101 (serotype 1), modified 7H10 broth, pH 5.8.
Where [8] appears, read: Table 3, modified 7H10 broth, pH 5.8.

≈ marks a conversion by molar mass, not a printed value. Where only a bound is given, the exact number is not on record here.

As for `NC(=O)c1cnc(Cl)cn1` [Compound 5-Chloro-PZA, 5-chloro-pyrazinamide, reference compound], the “MIC, M. avium complex ATCC 49601” value in the series on M. avium complex (setting [6]) was 32; in the series with M. avium complex (Table 4, ATCC 49601), 32. The “MIC, M. avium complex 101” value worked out at 32 in the series with M. avium complex (setting [7]) and 32 with M. avium complex (Table 4, strain 101). Also, the “MIC, M. kansasii S” value in the series on M. kansasii (setting [8]) and against M. kansasii (Table 4) was 32 each time. Besides, the “MIC, M. tuberculosis ATCC 27294” value against M. tuberculosis [1] stood at 16. In addition, the “MIC, M. tuberculosis ATCC 35801” value in the series on M. tuberculosis [1] is 16.
On to `CN(CNC(=O)c1cnccn1)Cc1ccccc1` [Compound 8, [(benzyl-methyl-amino)-methyl]-amide], for which, in the series on M. avium complex (Table 4, ATCC 49601), the “MIC, M. avium complex ATCC 49601” value came out at 128. Also, in the series with M. avium complex (Table 4, strain 101), the “MIC, M. avium complex 101” value stood at 128. For the same compound, the “MIC, M. kansasii S” value with M. kansasii (Table 4) was found to be 128.
For `O=C(NCN1CCCC1)c1cnccn1` [Compound 1, pyrazine-2-carboxylic acid (pyrrolidin-1-ylmethyl)-amide], the “MIC, M. avium complex ATCC 49601” value was greater than 128 against M. avium complex (setting [6]) and greater than 128 against M. avium complex (Table 4, ATCC 49601). Moreover, the “MIC, M. avium complex 101” value is reported as greater than 128 in the series with M. avium complex (setting [7]) and greater than 128 in the series with M. avium complex (Table 4, strain 101). The “MIC, M. kansasii S” value with M. kansasii (setting [8]) and in the series on M. kansasii (Table 4) was 128 throughout. Moreover, the “reduction of CFUs / infection in murine model of tuberculosis” value (“reduction of CFUs / infection” below) with M. tuberculosis [2] is recorded as “superior or equivalent to PZA in reducing CFUs”. Moreover, the “MIC, M. tuberculosis ATCC 27294” value in the series on M. tuberculosis [1] came to 16. The “MIC, M. tuberculosis ATCC 35801” value with M. tuberculosis [1] is on record as 8. Further, the “MIC, Pansusceptible strain, pH 6.0” value against M. tuberculosis [3] is 100. Further, the “MIC, Pansusceptible strain, pH 6.8” value against M. tuberculosis [3] is reported as 100. The “MIC, pansusceptible strain, pH 5.5” value in the series on M. tuberculosis [3] (pansusceptible strain, pH 5.5) was 50.
`CN1CCN(CNC(=O)c2cnccn2)CC1` [Compound 7, (piperazin-1-ylmethyl)-amide]: the “MIC, M. avium complex ATCC 49601” value in the series with M. avium complex (Table 4, ATCC 49601) was greater than 128. In addition, the “MIC, M. avium complex 101” value against M. avium complex (Table 4, strain 101) is greater than 128. In addition, in the series with M. kansasii (Table 4), the “MIC, M. kansasii S” value was greater than 128.
For `CCCCN(C)CNC(=O)c1cnccn1` [Compound 6], in the series on M. avium complex (Table 4, ATCC 49601), the “MIC, M. avium complex ATCC 49601” value is given as greater than 128. Moreover, the “MIC, M. avium complex 101” value against M. avium complex (Table 4, strain 101) is recorded as 128. Moreover, the “MIC, M. kansasii S” value in the series on M. kansasii (Table 4) is 128.
On to `CCN(CC)CNC(=O)c1cnc(N(CC)CC)cn1` [Compound 17, 5-diethylamino-pyrazinoic acid diethylaminomethyl-amide], for which, in the series on M. avium complex (setting [6]), the “MIC, M. avium complex ATCC 49601” value is recorded as greater than 128. In addition, the “MIC, M. avium complex 101” value against M. avium complex (setting [7]) was “(>128”. The “MIC, M. kansasii S” value in the series with M. kansasii (setting [8]) is listed as greater than 128. For the same compound, in the series on M. tuberculosis [1], the “MIC, M. tuberculosis ATCC 27294” value is 64 and the “MIC, M. tuberculosis ATCC 35801” value is listed as 16.
`O=C(NCN1CCOCC1)c1cnccn1` [MZA, morphazinamide]: the MIC against M. tuberculosis [3] (7H12 broth) turned out to be 100 µg/mL (≈ 450 µM).
`CCCCN(CCCC)CNC(=O)c1cnccn1` [Compound 10]: in the series with M. avium complex (Table 4, ATCC 49601), the “MIC, M. avium complex ATCC 49601” value is listed as greater than 128. Further, the “MIC, M. avium complex 101” value against M. avium complex (Table 4, strain 101) is greater than 128. The “MIC, M. kansasii S” value with M. kansasii (Table 4) is given as greater than 128.
As for `O=C(NCN1CCOCC1)c1cnccn1` [Compound 4, (morpholin-4-ylmethyl)-amide], the “MIC, M. avium complex ATCC 49601” value was greater than 128 against M. avium complex (setting [6]) and greater than 128 with M. avium complex (Table 4, ATCC 49601). Further, the “MIC, M. avium complex 101” value with M. avium complex (setting [7]) is recorded as greater than 128; with M. avium complex (Table 4, strain 101) it was 128. Further, the “MIC, M. kansasii S” value with M. kansasii (setting [8]) and with M. kansasii (Table 4) was 128 each time. Further, the “MIC, M. tuberculosis ATCC 27294” value with M. tuberculosis [1] is recorded as 32. Further, the “MIC, M. tuberculosis ATCC 35801” value in the series on M. tuberculosis [1] amounted to 16.
Consider `NC(=O)c1cnccn1` [PZA, Pyrazinamide], for which the activity in macrophages result in series [4] is recorded as “either weakly or clearly bacteriostatic in macrophages”. For the same compound, the “MIC, M. avium complex ATCC 49601” value was greater than 2048 against M. avium complex (setting [6]) and greater than 2048 against M. avium complex (Table 4, ATCC 49601). The “MIC, M. avium complex 101” value in the series on M. avium complex (setting [7]) was greater than 2048; with M. avium complex (Table 4, strain 101) it was greater than 2048. Moreover, the “MIC, M. kansasii S” value against M. kansasii (setting [8]) and against M. kansasii (Table 4) was 2048 throughout. In addition, in the series on M. tuberculosis [2], the “reduction of CFUs / infection” value is “effective in reducing infection”. The “activity against Mycobacterium avium” value in the series with Mycobacterium avium is on record as “Neither is it active”. In addition, the “MIC, M. tuberculosis ATCC 27294” value in the series with M. tuberculosis [1] came out at 16. For the same compound, the “MIC, M. tuberculosis ATCC 35801” value with M. tuberculosis [1] is listed as 32. Also, the pKa in series [5] is on record as 0.5. Further, the “difference in MICs under different pH conditions” value in the series on M. tuberculosis [3] (7H12 broth, pH 6.0 v. 6.8) is “dramatic difference”.
In the case of `CCCN(CCC)CNC(=O)c1cnccn1` [Compound 9, dipropylaminomethyl-amide], in the series on M. avium complex (Table 4, ATCC 49601), the “MIC, M. avium complex ATCC 49601” value is greater than 128. Also, the “MIC, M. avium complex 101” value with M. avium complex (Table 4, strain 101) worked out at 128. The “MIC, M. kansasii S” value against M. kansasii (Table 4) is listed as 128.
For the compound `CCCCN(CC)CNC(=O)c1cnccn1` [Compound 5], the “MIC, M. avium complex ATCC 49601” value in the series on M. avium complex (Table 4, ATCC 49601) is recorded as greater than 128. Moreover, the “MIC, M. avium complex 101” value against M. avium complex (Table 4, strain 101) worked out at 128. Moreover, in the series with M. kansasii (Table 4), the “MIC, M. kansasii S” value is recorded as greater than 128.
As for `CCN(CC)CNC(=O)c1cnccn1` [Compound 2, pyrazine-2-carboxylic acid diethylaminomethyl-amide], the “MIC, M. avium complex ATCC 49601” value against M. avium complex (setting [6]) turned out to be 128. The “MIC, M. avium complex 101” value against M. avium complex (setting [7]) worked out at 128. Moreover, the “MIC, M. kansasii S” value with M. kansasii (setting [8]) turned out to be 128. For the same compound, the “reduction of CFUs / infection” value in the series on M. tuberculosis [2] is recorded as “superior or equivalent to PZA in reducing CFUs”. Besides, in the series on M. tuberculosis [1], the “MIC, M. tuberculosis ATCC 27294” value amounted to 16 and the “MIC, M. tuberculosis ATCC 35801” value was 2. In the series on M. tuberculosis [3], the “MIC, Pansusceptible strain, pH 6.0” value is 100 and the “MIC, Pansusceptible strain, pH 6.8” value came to 100. In the series with M. tuberculosis [3] (7H12 broth), this compound had an MIC of 100 µg/mL (≈ 480 µM).
